In PubChem BioAssay AID652053 (Broad Institute, 2013):

System: Huh7 psiCHECK-miR122 Renilla luciferase reporter, 48 h
Assay: miR-122 inhibitors in Huh7 reporter cells, dose response, cell-based, Huh7 psiCHECK-miR122, Renilla luciferase, cherry-pick (AID 652053)

Question: How did the AC40 turn out when `COc1ccc(NS(=O)(=O)c2ccc(OC)c3ccccc23)cn1` was run?
Answer: The AC40 was 2.67 µM.

Question: Which AC40 does the source give for `COc1cccc(C2(c3cccc(OC)c3)CC2C(=O)Nc2ccc(F)cc2)c1` (stereo not drawn) here?
Answer: The AC40 was 2.68 µM.

Question: With `CC(C)CCC(CC(C)O)C(=O)NNC(=S)Nc1ccccc1` (stereo not drawn) as the compound, how does the AC40 read?
Answer: Its AC40 is 9.74 µM.

Question: Which AC40 does the source give for `CNC(=O)NC(=O)C(C)OC(=O)c1ccc(Cl)c(S(=O)(=O)Nc2ccc(F)cc2)c1` (stereo not drawn) here?
Answer: Its AC40 is 7.64 µM.

Question: How did the AC40 turn out when `COc1ccccc1NC(=S)NCC1CCCCC1` was run?
Answer: The AC40 was 8.17 µM.

Question: Which AC40 does the source give for `Cc1ccc(S(=O)(=O)N(CC(=O)N2CCC(C)CC2)c2cccc(C)c2)cc1` here?
Answer: The AC40 was 12 µM.

Question: `C[C@H](CO)N1C[C@H](C)[C@H](CN(C)Cc2ccc(C(=O)Nc3ccccc3N)cc2)Oc2ccc(NS(=O)(=O)c3ccccc3)cc2CC1=O` was tested. Which AC40 did it give?
Answer: Its AC40 is 3.45 µM.

Question: For `CCOC(=O)Nc1ccc(NS(=O)(=O)c2ccc(C)cc2)cc1`, which AC40 is on record?
Answer: The AC40 was 8.82 µM.

Question: Which AC40 does the source give for `C[C@@H]1CN([C@H](C)CO)C(=O)c2cccc(NC(=O)Nc3ccccc3)c2O[C@@H]1CN(C)Cc1ccc(C(=O)Nc2ccccc2N)cc1` here?
Answer: Its AC40 is 20.5 µM.

Question: Which AC40 does the source give for `C[C@H](CO)N1C[C@H](C)[C@@H](CN(C)Cc2ccc(Cl)c(Cl)c2)Oc2c(NS(=O)(=O)c3cccs3)cccc2C1=O` here?
Answer: The AC40 was 2.7 µM.

Question: How did the AC40 turn out when `CCOc1ccc(Br)cc1S(=O)(=O)Nc1cccc(S(=O)(=O)N(C)c2ccccc2)c1` was run?
Answer: The AC40 was 3.18 µM.

Question: With `O=C(C1CCC1)N1CCc2cc(S(=O)(=O)NCc3ccco3)ccc21` as the compound, how does the AC40 read?
Answer: The AC40 was 12.3 µM.

Question: `C[C@H](CO)N1C[C@H](C)[C@@H](CN(C)Cc2ccc3c(c2)OCO3)Oc2c(NC(=O)c3ccncc3)cccc2C1=O` was tested. Which AC40 did it give?
Answer: The AC40 was 13.1 µM.

Question: How did the AC40 turn out when `Cc1cc(C)cc(NS(=O)(=O)c2ccc3oc(=O)ccc3c2)c1` was run?
Answer: The AC40 was 3.43 µM.

Question: `CN1C(=O)c2cccc3c(S(=O)(=O)NCCc4ccccc4)ccc1c23` was tested. Which AC40 did it give?
Answer: Its AC40 is 0.281 µM.

Question: How did the AC40 turn out when `Cc1ccc(N(CC(=O)NCc2cccs2)S(=O)(=O)c2cccs2)cc1` was run?
Answer: Its AC40 is 29 µM.

Question: `COc1ccc(N(C(=O)c2ccco2)S(=O)(=O)c2cc(Cl)c(Cl)cc2Cl)cc1` was tested. Which AC40 did it give?
Answer: The AC40 was 12.4 µM.

Question: With `COc1ccc(CNS(=O)(=O)c2cc(-c3cc(C)no3)ccc2C(C)C)cc1` as the compound, how does the AC40 read?
Answer: Its AC40 is 3.69 µM.

Question: How did the AC40 turn out when `COc1ccc(OC)c(S(=O)(=O)NCc2ccccc2)c1` was run?
Answer: The AC40 was 0.781 µM.

Question: With `CCc1ccc(NS(=O)(=O)c2cc(OC)ccc2OC)cc1` as the compound, how does the AC40 read?
Answer: Its AC40 is 0.866 µM.

Question: `COc1ccc(C)cc1NS(=O)(=O)c1ccc2c(c1)N(C)CCO2` was tested. Which AC40 did it give?
Answer: The AC40 was 1.54 µM.

Question: For `CCCNC(=O)C[C@@H]1CC[C@H]2[C@H](COc3ccc(NC(=O)c4ccc5c(c4)OCO5)cc3C(=O)N2C)O1`, which AC40 is on record?
Answer: Its AC40 is 2.21 µM.

Question: For `S=C(Nc1ccc(Cl)c(Cl)c1)NC1CCCCC1`, which AC40 is on record?
Answer: Its AC40 is 1.37 µM.

Question: For `COC(=O)c1c(C)oc(C)c1S(=O)(=O)NCC1CC1`, which AC40 is on record?
Answer: The AC40 was 3.29 µM.

Question: Which AC40 does the source give for `O=S(=O)(Nc1ccc2ccccc2c1)c1ccccc1` here?
Answer: Its AC40 is 12.5 µM.

Question: For `CCCn1c(NC(=O)c2cccc(C)c2C)nc2ccccc21`, which AC40 is on record?
Answer: The AC40 was 16.2 µM.

Question: With `CC(=O)N1CCOc2ccc(S(=O)(=O)NCCc3cccc(C)c3)cc21` as the compound, how does the AC40 read?
Answer: The AC40 was 4.01 µM.

Question: Which AC40 does the source give for `CCNc1ccc(S(=O)(=O)N(C)C)cc1NCC(=O)Nc1ccc(F)c(Cl)c1` here?
Answer: Its AC40 is 1.45 µM.

Question: With `Cc1ccc2ccccc2c1C(O)c1ncc(-c2ccccc2F)[nH]1` (stereo not drawn) as the compound, how does the AC40 read?
Answer: The AC40 was 4.22 µM.

Question: For `NC(=O)Cn1cc(/C=N\NS(=O)(=O)c2ccc(F)cc2)c2ccccc21`, which AC40 is on record?
Answer: The AC40 was 3.22 µM.

Question: Which AC40 does the source give for `CN1CC(c2ccc(C#N)cc2)C2(COc3ccccc3C2=O)C12C(=O)Nc1ccccc12` (stereo not drawn) here?
Answer: The AC40 was 3.69 µM.

Question: Which AC40 does the source give for `COc1ccccc1NS(=O)(=O)c1cccc(NC(=O)c2[nH]c(C)c(C(C)=O)c2C)c1` here?
Answer: Its AC40 is 7.17 µM.

Question: Which AC40 does the source give for `CCCCn1nnnc1C(c1cccc(OC)c1OC)N1CCC2(CC1)C(=O)NCN2c1ccccc1` (stereo not drawn) here?
Answer: The AC40 was 2.44 µM.

Question: How did the AC40 turn out when `CN1C(=O)c2cc(NC(=O)Cc3ccccc3)ccc2OC[C@@H]2O[C@@H](CC(=O)NCC3CC3)CC[C@@H]21` was run?
Answer: The AC40 was 0.732 µM.

Question: How did the AC40 turn out when `COc1ccc(S(=O)(=O)NCc2ccccc2)cc1` was run?
Answer: Its AC40 is 2.53 µM.

Question: For `COc1ccc(S(=O)(=O)Nc2ccc3c(c2)C(=O)N([C@@H](C)CO)C[C@H](C)[C@H](CN(C)C(=O)Nc2ccccc2)OCCCC[C@@H](C)O3)cc1`, which AC40 is on record?
Answer: The AC40 was 29.6 µM.

Question: `Cc1cc(C)c(C)c(S(=O)(=O)Nc2ccc3cn[nH]c3c2)c1C` was tested. Which AC40 did it give?
Answer: Its AC40 is 0.694 µM.

Question: `Cc1ccc(-c2cnc3c(c2)C(=O)N([C@H](C)CO)C[C@@H](C)[C@H](CN(C)Cc2ccccc2F)O3)cc1` was tested. Which AC40 did it give?
Answer: Its AC40 is 2.64 µM.

Question: With `Cc1noc(C)c1S(=O)(=O)N(C)C[C@@H]1Oc2c(NC(=O)C3CCOCC3)cccc2C(=O)N([C@@H](C)CO)C[C@@H]1C` as the compound, how does the AC40 read?
Answer: The AC40 was 4.51 µM.

Question: How did the AC40 turn out when `CCOC(=O)CNS(=O)(=O)c1cc(-c2nnc(Nc3ccc4c(c3)OCO4)c3ccccc23)ccc1C` was run?
Answer: The AC40 was 2.63 µM.

Question: For `CCOc1ccc(Br)cc1S(=O)(=O)Nc1ccc(Cl)c(S(=O)(=O)N(CC)c2ccccc2)c1`, which AC40 is on record?
Answer: Its AC40 is 4.18 µM.

Question: With `O=C1c2ccccc2C2=Nc3ccccc3SC(c3cccc(F)c3)C12` (stereo not drawn) as the compound, how does the AC40 read?
Answer: Its AC40 is 7.63 µM.

Question: `COc1ccc(-c2ccc3c(c2)CN(C(=S)NCCc2ccccc2)Cc2cnnn2-3)cc1` was tested. Which AC40 did it give?
Answer: The AC40 was 2.2 µM.

Question: With `O=C(Nc1sc2c(c1C(=O)O)CCC2)c1ccco1` as the compound, how does the AC40 read?
Answer: Its AC40 is 15.1 µM.

Question: How did the AC40 turn out when `COc1ccc(S(=O)(=O)Nc2ccc(S(=O)(=O)N3CCOCC3)cc2)cc1` was run?
Answer: The AC40 was 14.7 µM.

Question: Which AC40 does the source give for `COc1ccc(NC(=O)c2cccc(S(=O)(=O)Nc3ccc(Br)cc3)c2)cn1` here?
Answer: Its AC40 is 2.11 µM.

Question: With `C[C@H]1CN([C@@H](C)CO)C(=O)c2cccc(NC(=O)C3CCCCC3)c2O[C@@H]1CN(C)Cc1ccc(C(F)(F)F)cc1` as the compound, how does the AC40 read?
Answer: Its AC40 is 0.547 µM.

Question: Which AC40 does the source give for `O=S(=O)(Nc1ccc(Cl)cc1)c1ccc2c(c1)CCO2` here?
Answer: Its AC40 is 2.26 µM.

Question: Which AC40 does the source give for `COc1ccc(S(=O)(=O)NCc2ccccn2)cc1NC(=O)c1ccc(C)cc1` here?
Answer: The AC40 was 7.81 µM.

Question: `CC(C)CNS(=O)(=O)c1ccc(OCC(=O)Nc2ccc3c(c2)OCO3)c(Cl)c1` was tested. Which AC40 did it give?
Answer: Its AC40 is 8.36 µM.

Question: How did the AC40 turn out when `Cc1ccc(S(=O)(=O)N2CCC3(CC2)OCCN3S(=O)(=O)c2cccs2)cc1` was run?
Answer: The AC40 was 3.63 µM.

Question: With `CCc1ccc(NC(=O)Cc2cn(C)c3ccccc23)cc1` as the compound, how does the AC40 read?
Answer: The AC40 was 28.8 µM.

Question: With `O=C(Nc1ccc(S(=O)(=O)NCCc2ccccc2)cc1)c1ccco1` as the compound, how does the AC40 read?
Answer: Its AC40 is 2.02 µM.

Question: `Cc1ccc(NS(=O)(=O)c2ccc3c(c2)n(C)c(=O)n3C)cc1C` was tested. Which AC40 did it give?
Answer: Its AC40 is 3.8 µM.

Question: With `COc1ccc(S(=O)(=O)Nc2cc(C)ccc2OC)cc1C` as the compound, how does the AC40 read?
Answer: Its AC40 is 3.63 µM.

Question: How did the AC40 turn out when `CCOc1ccc(S(=O)(=O)NCc2ccco2)c2ccccc12` was run?
Answer: The AC40 was 3.06 µM.

Question: With `CC(=O)c1cccc(NS(=O)(=O)c2ccc3c(c2)oc(=O)n3C)c1` as the compound, how does the AC40 read?
Answer: Its AC40 is 7.31 µM.

Question: Which AC40 does the source give for `O=C(Nc1sc2c(c1C(=O)O)CCC2)c1cccs1` here?
Answer: Its AC40 is 9.16 µM.

Question: For `CCOC(=O)Nc1nc(-c2ccccc2)c(C(=O)c2ccc(Cl)cc2)s1`, which AC40 is on record?
Answer: Its AC40 is 13.8 µM.

Question: `CC(C)CNS(=O)(=O)c1ccc2c(c1)OCCO2` was tested. Which AC40 did it give?
Answer: Its AC40 is 5.9 µM.

Question: Which AC40 does the source give for `c1ccc(CNc2nnnn2-c2ccccc2)cc1` here?
Answer: The AC40 was 17.1 µM.

Question: Which AC40 does the source give for `Cc1ccc(C(=O)NCCSc2ccc(Cl)cc2)cc1S(=O)(=O)Nc1ccccc1` here?
Answer: The AC40 was 4.3 µM.

Question: For `O=C(Nc1ccccc1F)N1C[C@H]2[C@@H](c3ccccc31)[C@@H](CO)N2C(=O)c1ccc(F)cc1`, which AC40 is on record?
Answer: Its AC40 is 1.25 µM.

Question: For `COc1cccc(-c2ccc3c(c2)[C@H]2[C@H](CCN2S(=O)(=O)c2ccccc2C)[C@@H](CO)N3)c1`, which AC40 is on record?
Answer: Its AC40 is 14.3 µM.

Question: With `O=C(NCC1CCCO1)C(c1cccs1)N(Cc1cccs1)C(=O)Cn1nnc(-c2cccs2)n1` (stereo not drawn) as the compound, how does the AC40 read?
Answer: Its AC40 is 13.5 µM.

Question: Which AC40 does the source give for `CCc1c(C(=O)Nc2ccc(OC)cc2)[nH]c(C)c1C(C)=O` here?
Answer: The AC40 was 5.6 µM.

Question: How did the AC40 turn out when `Clc1cccc(Cl)c1CSc1nnc(CN2CCOCC2)n1-c1ccccc1` was run?
Answer: The AC40 was 10.4 µM.

Question: How did the AC40 turn out when `COc1ccc(NS(=O)(=O)c2ccc(OC)c(OC)c2)cc1OC` was run?
Answer: Its AC40 is 5.37 µM.

Question: Which AC40 does the source give for `COc1cccc(N2CCN(C(=O)c3ccc(CS(=O)c4ccccc4Cl)o3)CC2)c1` (stereo not drawn) here?
Answer: Its AC40 is 15.8 µM.

Question: For `CCOC(=O)c1c(S(=O)(=O)Nc2cccc(Cl)c2)c(C)n(C)c1C`, which AC40 is on record?
Answer: The AC40 was 1.08 µM.

Question: With `COc1ccc(NS(=O)(=O)c2cc3c(cc2C)N(C)CCO3)cc1` as the compound, how does the AC40 read?
Answer: The AC40 was 2.04 µM.

Question: For `CC(C)C(=O)NC(=S)Nc1ccc(S(=O)(=O)Nc2ccccc2)cc1`, which AC40 is on record?
Answer: Its AC40 is 0.461 µM.

Question: For `Cc1nc2ccc(NS(=O)(=O)c3c(C)c(C)cc(C)c3C)cc2s1`, which AC40 is on record?
Answer: The AC40 was 0.68 µM.
